Measurements as given in paper PMC8762250, “Identification of Novel Chemical Scaffolds that Inhibit the Growth of Mycobacterium tuberculosis in Macrophages” (Frontiers in Pharmacology, 2022).
Where two headings read alike, the source gives them in different places. Marks after values point to notes of the source that are not given here.

Columns and labels:
[1] = HepG2 cytotoxicity (CellTiter-Glo, 72 h); type: cell-based, human; details: human
Protocol: (§1) Cytotoxicity against HepG2 cells was measured after 72 h. Cells were seeded in 384-well plates at 1,800 cells per well. Compounds were added as a 10-point three-fold serial dilution after 24 h (final assay concentration of 1% DMSO). CellTiter-Glo® reagent (Promega) was added and relative luminescence units (RLU) measured. Data were normalized to the DMSO controls. Curves were fitted using the Levenberg–Marquardt algorithm; TC50 was calculated as the compound concentration required to reduce cell viability by 50%.
(§2) We further evaluated cytotoxicity using the HepG2 cell line cultured with either glucose or galactose in the medium (Table 2). HepG2 cells cultured with galactose rely on mitochondrial oxidative phosphorylation rather than glycolysis which increases their susceptibility to mitochondrial toxicants allowing us to identify compounds with mitochondrial toxicity ([Kamalian et al., 2015]).

HepG2 cells = test: HepG2 cytotoxicity (CellTiter-Glo, 72 h); type: cell-based, human; details: for HepG2 cytotoxicity TC50 Galactose / HepG2 cytotoxicity TC50 Glucose: human, 72 h
Protocol: as §1, §2

M. tuberculosis [2] = test: High content assay of intracellular M. tuberculosis growth in infected RAW264.7 macrophages; type: cell-based, Mycobacterium tuberculosis H37Rv-LP
Protocol: Compounds were obtained in 384-well plates as 10 mM DMSO stock solutions and tested as described ([Manning et al., 2017]). Briefly, assay plates were prepared in clear bottom, black 384-well plates with 30 μl cRPMI and 0.6 μl compound in columns 3–22 (final concentration of 10 μM compound, 1% DMSO). […] INH and STA were also included in dose response on each plate. RAW264.7 cells were infected with M. tuberculosis DREAM8 as described ([Manning et al., 2017]) at an MOI of 1 for 24 h and extracellular bacteria removed by washing. Cells were recovered using Accumax, harvested, washed and resuspended in serum-free RPMI; 30 μl of infected cells were dispensed into each well at 3,300 cells/well. Plates were incubated for 72 h, 10 μl of 5X SYBR Green I was added and plates were imaged with an ImageXpress Micro High Content Screening System (Molecular Devices) using a ×4 objective and FITC and Texas Red channels. MetaXpress was used to analyze images. The integrated intensity of M. tuberculosis or macrophages was calculated for each well. Growth inhibition was calculated for each test well by normalizing to the average integrated intensity of the DMSO control wells. IC50 was calculated as the compound concentration required to reduce bacterial growth by 50%. TC50 was calculated as the compound concentration required to reduce macrophage viability by 50%.

M. tuberculosis [3] = test: Minimum inhibitory concentration in liquid medium (axenic culture); type: cell-based, Mycobacterium tuberculosis; details: for IC50: read-out: Anti-tubercular activity in axenic culture IC50
RAW264.7 cells = test: Macrophage viability in the same high content assay; details: for Intracellular activity Cytotoxicity TC50 / Intracellular RAW TC50: infected RAW264.7 macrophages; for Intracellular activity Cytotoxicity TC50: 72 h; for Intracellular RAW TC50: SAR tables 4-8; for selectivity index (TC50/IC50): macrophage TC50 / intracellular IC50
[4] = HepG2 cytotoxicity IC50 Galactose
[5] = HepG2 cytotoxicity IC50 Glucose
[6] = Mycobacterium tuberculosis, RAW264.7, 72 h, M. tuberculosis in RAW264.7 cells, MOI 1, 72 h, read-out: Intracellular activity Anti-tubercular activity IC50
[7] = Mycobacterium tuberculosis, RAW264.7, in RAW264.7 macrophages, SAR tables 4-8, read-out: Intracellular Mtb IC50
[8] = Mycobacterium tuberculosis, 120 h, extracellular, 5 days, OD590
[9] = Mycobacterium tuberculosis, 120 h, extracellular, 5 days, OD590, read-out: Anti-tubercular activity in axenic culture IC90
[10] = Mycobacterium tuberculosis, axenic culture, SAR tables 4-8, read-out: Extracellular IC90
[11] = in RAW264.7 macrophages, SAR tables 4-8, read-out: Intracellular Mtb IC50
[12] = Mycobacterium tuberculosis, RAW264.7, read-out: Intracellular Mtb IC50, in RAW264.7 macrophages, SAR tables 4-8

SMILES | IC50 at 72 h [1, 4] [µM] | IC50 at 72 h [1, 5] [µM] | HepG2 cytotoxicity TC50 Galactose (HepG2 cells) | HepG2 cytotoxicity TC50 Glucose (HepG2 cells) | activity against intracellular M. tuberculosis (M. tuberculosis [2]) | IC50 (M. tuberculosis [2]; [6]) [µM] | IC50 (M. tuberculosis [2]; [7]) [µM] | IC50 (M. tuberculosis [3]; [8]) [µM] | IC90 (M. tuberculosis [3]; [9]) [µM] | IC90 (M. tuberculosis [3]; [10]) [µM] | Intracellular activity Cytotoxicity TC50 (RAW264.7 cells) | Intracellular RAW TC50 (RAW264.7 cells) | IC50 (M. tuberculosis [2]; [11]) [µM] | IC50 (M. tuberculosis [2]; [12]) [µM] | selectivity index (TC50/IC50) (RAW264.7 cells) | IC50 (M. tuberculosis [3]; extracellular, 5 days, OD590) [µM] | selectivity (SI) for HepG2 (HepG2 cells; HepG2 cytotoxicity / intracellular IC50) | IC50 (M. tuberculosis [2]; in RAW264.7 macrophages, SAR tables 4-8, listed as 26, read-out: Intracellular Mtb IC50) [µM] | selectivity index (SI) (RAW264.7 cells; HepG2 cells and/or macrophages, cell line not specified) | IC50 (M. tuberculosis [2]; in RAW264.7 macrophages, SAR tables 4-8, listed as 27, read-out: Intracellular Mtb IC50) [µM]
Cc1ccc(SCC(=O)Nc2ccc(Br)c(C)c2)cc1 [TPN-0006207] | > 100 | > 100 | >100 ^b µM | >100 ^b µM | good intracellular activity | 6.3 ± 0.3 | 6.3 ± 0.3 | > 20 | > 20 | > 20 | >100 ^b µM | >100 ^b µM |  |  |  |  |  |  |  | 
O=C(COc1ccccc1)NC12CC3CC(CC(C3)C1)C2 [TPN-0006211] | 43 ± 1 | 53 ± 1.5 | 43 ± 1 ^b µM | 53 ± 1.5 ^b µM |  | 7.6 ± 3.5 | 7.6 ± 3.5 | > 20 | > 20 | > 20 | 38 ± 6.0 ^b µM | 38 ± 6.0 ^b µM |  |  |  |  |  |  |  | 
CC(C)c1ccc(OCC(=O)Nc2nccs2)cc1 [TPN-0006217] | 64 ± 1.5 | 91 ± 3 | 64 ± 1.5 ^b µM | 91 ± 3 ^b µM |  | 4.9 ± 2.1 |  | > 20 | > 20 | > 20 | 75 ± 16 ^d µM |  |  |  |  |  |  |  |  | 
Nc1c(C(=O)N2CCCC2)sc2nc(-c3ccccc3)ccc12 [TPN-0073027] | 64 ± 12 | 72 ± 22 | 64 ± 10 ^e µM | 82 ± 25 ^d µM |  | 5.8 ± 2.1 | < 10 | > 20 | > 20 | > 20 | >100e µM | >100 ^g µM | 6.8 ± 3.3 |  |  |  |  |  |  | 
Cc1cc(C)nc(NC(=N)Nc2ccc(Br)cc2)n1 [TPN-0073061] | 22 ± 3.1 | 212 ± 4 | 22 ± 3.1 ^c µM | 22 ± 4.0 ^c µM |  | 1.3 ± 0.15 |  | 6.3 ± 0.15 | 8.2 ± 0.1 | 8.2 ± 0.1 | 18 ± 4.3 ^d µM | 18 ± 4.3 ^d µM |  | 1.3 ± 0.1 | 14 |  |  |  |  | 
CCOc1ccc(NC(=S)Nc2ccccc2)cc1 [TPN-0073062] | > 100 | > 100 | >100 ^e µM | >100 ^e µM |  | 0.39 ± 0.13 |  | 11 ± 5.3 | > 20 | > 20 | >100 ^d µM | >100 ^d µM |  | 0.4 ± 0.1 | > 250 |  |  |  |  | 
CCOc1ccc(NC(=S)Nc2ccc(C)c(C#N)c2)cc1 [TPN-0073063] | 35 ± 6.6 | 64 ± 40 | 34 ± 6.5 ^e µM | 40 ± 11 ^e µM |  | 0.25 ± 0.23 |  | 5 ± 1.5 | 9.5 ± 3.2 | 9.5 ± 3.2 | 47 ± 28 ^f µM | 47 ± 28 ^g µM |  | 0.3 ± 0.2 | > 150 |  |  |  |  | 
OCc1cn(-c2ccc(Cl)cc2)nc1-c1ccc(Cl)cc1 [TPN-0073562] | 31 ± 2.2 | 31 ± 2.1 | 31 ± 1.9 ^e µM | 31 ± 2.1 ^c µM |  | 2.9 ± 0.52 | 2.9 ± 0.5 | 12 ± 0.5 | 19 ± 1.5 | 19 ± 1.5 | 16 ± 11 ^c µM | 16 ± 11 ^c µM |  |  |  |  |  |  |  | 
OCc1cn(-c2ccc(F)cc2)nc1-c1cc(F)c(Cl)cc1Cl [TPN-0073565] | 43 ± 2.3 | 46 ± 2.8 | 43 ± 2.1 ^d µM | 46 ± 2.8 ^e µM |  | 7 ± 1.8 | 7 ± 1.8 | 18.5 | > 20 | > 20 | >100 ^d µM | >100 ^d µM |  |  |  | > 20 |  |  |  | 
CCCOc1ccc(C(=O)Nc2sc(C)c(C)c2C(N)=O)cc1 [TPN-0073576] | 89 ± 5.5 | 83 ± 2.9 | 92 ± 7 ^c µM | 83 ± 2.9 ^c µM |  | 1.1 ± 0.36 |  | > 20 | > 20 | > 20 | >100 ^d µM | >100 ^d µM | 1 ± 0.4 |  |  |  | > 80 | < 5 | > 10 | 
O=C(Nc1ccc(Cl)c(Cl)c1)c1cccs1 [TPN-0073578] | 4.7 ± 0.5 | 3.9 ± 1.1 | 4.7 ± 0.54 ^c µM | 3.9 ± 1.1 ^c µM |  | 1.7 ± 0.85 |  | > 20 | > 20 | > 20 | 11 ± 2.2 ^d µM | 11 ± 2.2 ^c µM |  |  |  |  |  |  |  | < 5
